# Columns and labels:
# [1] = biological target: T1, Mouse M4 (Mus musculus, UniProt P32211); assay: mAChR M4 cell-based functional calcium flux assay (mouse M4/Gqi5/CHO cells); conditions: for Emin (mouse M4): % ACh maximum at 30 μM; for IC50: decrease of the response to an EC80 concentration of acetylcholine
# T1 construct: expressed in transfected cells; host or cells: CHO-K1 (ATCC), stably expressing M4 and Gqi5
# T1 sequence (P32211 1-479): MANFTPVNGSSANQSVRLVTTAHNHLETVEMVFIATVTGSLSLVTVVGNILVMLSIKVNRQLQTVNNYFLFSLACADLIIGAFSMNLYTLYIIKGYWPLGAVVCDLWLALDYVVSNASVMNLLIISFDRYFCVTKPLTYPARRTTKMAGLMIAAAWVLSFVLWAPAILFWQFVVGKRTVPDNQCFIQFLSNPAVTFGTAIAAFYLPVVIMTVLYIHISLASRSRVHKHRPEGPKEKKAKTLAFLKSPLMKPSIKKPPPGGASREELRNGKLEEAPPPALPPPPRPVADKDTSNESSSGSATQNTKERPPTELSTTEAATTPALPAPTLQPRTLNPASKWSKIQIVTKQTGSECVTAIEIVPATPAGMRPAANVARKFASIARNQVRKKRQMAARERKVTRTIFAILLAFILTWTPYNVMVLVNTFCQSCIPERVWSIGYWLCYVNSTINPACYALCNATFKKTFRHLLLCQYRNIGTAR
# Experimental: Human, rat, or mouse M4. cDNA, along with the chimeric G protein Gqi5, were transfected into Chinese hamster ovary (CHO-K1) cells purchased from the American Type Culture Collection using Lipofectamine2000. M4/Gqi5/CHO cells were grown in Ham's F-12 medium containing 10% heat-inactivated fetal bovine serum (FBS), 20 mM HEPES, 500 μg/mL G418 sulfate, and 200 μg/mL Hygromycin B.
# For high throughput measurement of agonist-evoked increases in intracellular calcium, CHO-K1 cells stably expressing muscarinic receptors were plated in growth medium lacking G418 and hygromycin at 15,000 cells/20 μL/well in Greiner 384-well black-walled, tissue culture (TC)-treated, clear-bottom plates (VWR). Cells were incubated overnight at 37° C. and 5% CO2. The next day, cells were washed using an ELX 405 (BioTek) with assay buffer; the final volume was then aspirated to 20 μL. Next, 20 μL of a 2.3 μM stock of Fluo-4/acetoxymethyl ester (Invitrogen, Carlsbad, CA), prepared as a 2.3 mM stock in DMSO and mixed in a 1:1 ratio with 10% (w/v) Pluronic F-127 and diluted in assay buffer, was added to the wells and the cell plates were incubated for 50 min at 37° C. and 5% CO2. Dye was removed by washing with the ELX 405 and the final volume was aspirated to 20 μL. Compound master plates were formatted in a 10 point concentration-response curve (CRC) format (1:3 dilutions) in 100% DMSO with a starting concentration of 10 or 1 mM using a BRAVO liquid handler (Agilent). Test compound CRCs were then transferred to daughter plates (240 nL) using the Echo acoustic plate reformatter (Labcyte, Sunnyvale, CA) and then diluted into assay buffer (40 μL) to a 2× stock using a Thermo Fisher Combi (Thermo Fisher Scientific, Waltham, MA).
# Calcium flux was measured using the Functional Drug Screening System (FDSS) 6000 or 7000 (Hamamatsu Corporation, Tokyo, Japan) as an increase in the fluorescent static ratio. Compounds were applied to cells (20 μL, 2×) using the automated system of the FDSS at 2 seconds into the protocol and the data were collected at 1 Hz. At 143 s, 10 μL of an EC20 concentration of the muscarinic receptor agonist acetylcholine was added (5×), followed by the addition of 12 μL of an EC80 concentration of acetylcholine at the 268 s time point (5×). Agonist activity was analyzed as a concentration-dependent increase in calcium mobilization upon compound addition. Positive allosteric modulator activity was analyzed as a concentration-dependent increase in the EC20 acetylcholine response. Antagonist activity was analyzed as a concentration-dependent decrease in the EC80 acetylcholine response; for the purposes of the tables herein, an IC50 (inhibitory concentration 50) was calculated as a concentration-dependent decrease of the response elicited by an EC80 concentration of acetylcholine. Concentration-response curves were generated using a four-parameter logistical equation in XLFit curve fitting software (IDBS, Bridgewater, NJ) for Excel (Microsoft, Redmond, WA) or Prism (GraphPad Software, Inc., San Diego, CA) or the Dotmatics software platform (Dotmatics, Bishop's Stortford, UK).
# Compounds were synthesized as described above. Activity (IC50 and Emin) was determined in the mAChR M4 cell-based functional assay as described above and the data are shown in Table 2 and Table 3. The compound number corresponds to the compound numbers used in the examples and Tables 1 and 1.1.
# [2] = biological target: T2, Rat M4 (Rattus norvegicus, UniProt P08485); assay: mAChR M4 cell-based functional calcium flux assay (rat M4/Gqi5/CHO cells); conditions: for Emin (rat M4): % ACh maximum at 30 μM
# T2 construct: expressed in transfected cells; host or cells: CHO-K1 (ATCC), stably expressing M4 and Gqi5
# T2 sequence (P08485 1-478): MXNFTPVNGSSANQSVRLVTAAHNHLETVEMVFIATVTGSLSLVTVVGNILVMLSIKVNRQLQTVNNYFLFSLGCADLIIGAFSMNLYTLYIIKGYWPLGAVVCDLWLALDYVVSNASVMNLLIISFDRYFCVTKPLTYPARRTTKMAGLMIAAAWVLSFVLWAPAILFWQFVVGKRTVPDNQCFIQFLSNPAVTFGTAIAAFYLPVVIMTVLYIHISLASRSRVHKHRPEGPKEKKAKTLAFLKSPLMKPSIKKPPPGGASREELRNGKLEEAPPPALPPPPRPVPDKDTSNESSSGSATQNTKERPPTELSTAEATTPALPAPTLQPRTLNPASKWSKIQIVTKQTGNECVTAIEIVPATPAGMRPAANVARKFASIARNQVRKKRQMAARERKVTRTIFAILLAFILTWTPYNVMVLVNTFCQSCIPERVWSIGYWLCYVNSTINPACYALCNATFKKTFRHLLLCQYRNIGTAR
# Method in brief: (§1)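 CHO-K1 cells stably co-expressing M4 of the given species with chimeric Gqi5 were loaded with Fluo-4 AM and read for calcium flux. Compounds (10-point, 1:3 dilutions) were added first, followed by an acetylcholine EC20 at 143 s and an EC80 at 268 s. IC50 reflects the concentration-dependent fall in the EC80 response, fitted with a four-parameter logistic.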
# [3] = biological target: T3, Human M4 (Homo sapiens, UniProt P08173); assay: mAChR M4 cell-based functional calcium flux assay (human M4/Gqi5/CHO cells); conditions: for Emin (human M4): % ACh maximum at 30 μM; for IC50: decrease of the response to an EC80 concentration of acetylcholine
# T3 construct: expressed in transfected cells; host or cells: CHO-K1 (ATCC), stably expressing M4 and Gqi5
# T3 sequence (P08173 1-479): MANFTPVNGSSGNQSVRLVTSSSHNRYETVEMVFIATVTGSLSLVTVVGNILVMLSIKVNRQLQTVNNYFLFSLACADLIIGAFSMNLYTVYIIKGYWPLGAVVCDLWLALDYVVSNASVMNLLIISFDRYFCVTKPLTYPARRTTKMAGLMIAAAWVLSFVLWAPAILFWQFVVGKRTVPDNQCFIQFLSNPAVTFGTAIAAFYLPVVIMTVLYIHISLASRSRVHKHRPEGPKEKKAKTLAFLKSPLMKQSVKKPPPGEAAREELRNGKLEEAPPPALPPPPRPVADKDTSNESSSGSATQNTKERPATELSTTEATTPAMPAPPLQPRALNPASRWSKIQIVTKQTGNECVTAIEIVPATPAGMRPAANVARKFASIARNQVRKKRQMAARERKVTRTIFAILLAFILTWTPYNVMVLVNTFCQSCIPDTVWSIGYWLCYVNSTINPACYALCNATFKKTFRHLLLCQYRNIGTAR
# Method in brief: as §1
# [4] = decrease of the response to an EC80 concentration of acetylcholine
SMILES,Emin (mouse M4) [1] [%],IC50 [1] [µM],Emin (rat M4) [2] [%],"IC50 [2, 4] [µM]",Emin (human M4) [3] [%],IC50 [3] [µM],"IC50 ([2]; cells printed in μM, decrease of the EC80 acetylcholine response) [µM]"
"CC(C)(C)CCN1CCC2(CC1)CC2CNc1ccc(N2CCCCC2)nn1 (centres unmarked) [Compound 78, N-[[6-(3,3-dimethylbutyl)-6-azaspiro[2.5]octan-2-yl]methyl]-6-(1-piperidyl)pyridazin-3-amine]",8,1.24,,,,,
"Fc1ccc(Cl)c(-c2ccc(OCC3CC34CCN(CC3CC5C=CC3C5)CC4)nn2)c1 (centres unmarked) [Compound 86, 6-(5-bicyclo[2.2.1]hept-2-enylmethyl)-2-[[6-(2-chloro-5-fluoro-phenyl)pyridazin-3-yl]oxymethyl]-6-azaspiro[2.5]octane]",3,2.81,,,,,
"CC(C)(C)CCN1CCC2(CC1)CC2CNc1ccc2nccn2n1 (centres unmarked) [Compound 102, N-[[6-(3,3-dimethylbutyl)-6-azaspiro[2.5]octan-2-yl]methyl]imidazo[1,2-b]pyridazin-6-amine]",8,1.29,,,,,
"Fc1ccc(Cl)c(-c2ccc(NC[C@@H]3CC34CCN(CC35CC6CC(CC(C6)C3)C5)CC4)nn2)c1 [Compound 115, N-[[(2R)-6-(1-adamantylmethyl)-6-azaspiro[2.5]octan-2-yl]methyl]-6-(2-chloro-5-fluoro-phenyl)pyridazin-3-amine]",,,3,0.152,2,0.0698,
"CC(=O)Nc1ccc(-c2nnc(NCC3CC34CCN(CCC(C)(C)C)CC4)c(C)c2C)cc1 (centres unmarked) [Compound 116, N-[4-[6-[[6-(3,3-dimethylbutyl)-6-azaspiro[2.5]octan-2-yl]methylamino]-4,5-dimethyl-pyridazin-3-yl]phenyl]acetamide]",,,4,0.015,5,0.0119,
"CC(=O)Nc1ccc(-c2nnc(NCC3CC34CCN(CC3CCCCC3)CC4)c(C)c2C)cc1 (centres unmarked) [Compound 117, N-[4-[6-[[6-(cyclohexylmethyl)-6-azaspiro[2.5]octan-2-yl]methylamino]-4,5-dimethyl-pyridazin-3-yl]phenyl]acetamide]",,,4,0.0137,5,0.0197,
"CC(=O)Nc1ccc(-c2ccc(NC[C@@H]3CC34CCN(CC3CCCCC3)CC4)nn2)cc1 [Compound 118, N-[4-[6-[[(2R)-6-(cyclohexylmethyl)-6-azaspiro[2.5]octan-2-yl]methylamino]pyridazin-3-yl]phenyl]acetamide]",,,5,0.0167,4,0.00585,
"CC(=O)Nc1ccc(-c2ccc(NC[C@@H]3CC34CCN(CC3CCCCCC3)CC4)nn2)cc1 [Compound 119, N-[4-[6-[[(2R)-6-(cycloheptylmethyl)-6-azaspiro[2.5]octan-2-yl]methylamino]pyridazin-3-yl]phenyl]acetamide]",,,5,0.0165,3,0.00818,
"CC(=O)Nc1ccc(-c2ccc(NC[C@@H]3CC34CCN(CC35CC6CC(CC(C6)C3)C5)CC4)nn2)cc1 [Compound 120, N-[4-[6-[[(2R)-6-(1-adamantylmethyl)-6-azaspiro[2.5]octan-2-yl]methylamino]pyridazin-3-yl]phenyl]acetamide]",,,3,0.0357,4,0.0287,
"CC(=O)Nc1ccc(-c2ccc(NC[C@@H]3CC34CCN(CC3CCOCC3)CC4)nn2)cc1 [Compound 121, N-[4-[6-[[(2R)-6-(tetrahydropyran-4-ylmethyl)-6-azaspiro[2.5]octan-2-yl]methylamino]pyridazin-3-yl]phenyl]acetamide]",,,9,0.0437,3,0.0682,
"CC(=O)Nc1ccc(-c2ccc(NC[C@@H]3CC34CCN(Cc3ncccc3C)CC4)nn2)cc1 [Compound 122, N-[4-[6-[[(2R)-6-[(3-methyl-2-pyridyl)methyl]-6-azaspiro[2.5]octan-2-yl]methylamino]pyridazin-3-yl]phenyl]acetamide]",,,12,0.32,12,1.41,
"CC(=O)Nc1ccc(-c2ccc(NC[C@@H]3CC34CCN(Cc3ccc(F)cc3)CC4)nn2)cc1 [Compound 123, N-[4-[6-[[(2R)-6-[(4-fluorophenyl)methyl]-6-azaspiro[2.5]octan-2-yl]methylamino]pyridazin-3-yl]phenyl]acetamide]",,,4,0.207,5,0.575,
"CC(=O)Nc1ccc(-c2ccc(NC[C@H]3CC34CCN(CCC(C)(C)C)CC4)nn2)cc1 [Compound 124, N-[4-[6-[[(2S)-6-(3,3-dimethylbutyl)-6-azaspiro[2.5]octan-2-yl]methylamino]pyridazin-3-yl]phenyl]acetamide]",,,4,0.0563,4,0.0343,
"CC(=O)Nc1ccc(-c2ccc(NC[C@H]3CC34CCN(CC3CCOCC3)CC4)nn2)cc1 [Compound 126, N-[4-[6-[[(2S)-6-(tetrahydropyran-4-ylmethyl)-6-azaspiro[2.5]octan-2-yl]methylamino]pyridazin-3-yl]phenyl]acetamide]",,,28,,14,1.81,≥ 10

# From patent US12600726B2, “Antagonists of the muscarinic acetylcholine receptor M4” (Vanderbilt University, priority 2017, dated 2026)
